Tests used:
[1] = system: patient-derived tumor organoids (PDTO) from pancreatic ductal adenocarcinoma; settings: P2X4 inhibitor 5-BDBD combined with 5-FU
APTAK tumor organoids = assay: APTAK tumor organoids: S6 phosphorylation and organoid survival; assay type: cell-based, mice; settings: P2x4 inhibitor in combination with 5-FU compared to each treatment alone
Procedure: Organoids were cultured in medium−/+doxycycline prior to the experiment. […] Organoids were cultured in medium−/+doxycycline prior to the experiment.
Colon tumor organoids were cultured as previously described (27). AOM/DSS induced colon tumors were harvested by opening the colon longitudinally and dissociated enzymatically for 30-40 min in digestion media containing 1 mg/ml collagenase I (Sigma-Aldrich), 0.5 mg/ml Dispase (Roche), 50 μg/ml DNase (Sigma-Aldrich) in RPMI medium containing 2% FCS. Supernatant was washed and filtered through a 70 μM cell strainer. Cells were then embedded in Matrigel (Corning, #356231) and cultured in Advanced Dulbecco's modified Eagle's medium/F12 (Invitrogen, #12634-028) supplemented with Glutamax (Invitrogen, #35050038), Hepes (Invitrogen, #15630056), Pen/Strep (Invitrogen, #15140122), N2 supplement (Invitrogen, #17502048), B27supplement (Invitrogen, #17504044) and n-Acetylcysteine (Sigma-Aldrich, #A91165). EGF (Invitrogen, #PMG8045), RspoI and noggin were added as niche factor.

rat P2X4 receptor = target: T1, rat P2X4 receptor (Rattus norvegicus, UniProt P51577); settings: cited from earlier work
T1 sequence (P51577 1-388): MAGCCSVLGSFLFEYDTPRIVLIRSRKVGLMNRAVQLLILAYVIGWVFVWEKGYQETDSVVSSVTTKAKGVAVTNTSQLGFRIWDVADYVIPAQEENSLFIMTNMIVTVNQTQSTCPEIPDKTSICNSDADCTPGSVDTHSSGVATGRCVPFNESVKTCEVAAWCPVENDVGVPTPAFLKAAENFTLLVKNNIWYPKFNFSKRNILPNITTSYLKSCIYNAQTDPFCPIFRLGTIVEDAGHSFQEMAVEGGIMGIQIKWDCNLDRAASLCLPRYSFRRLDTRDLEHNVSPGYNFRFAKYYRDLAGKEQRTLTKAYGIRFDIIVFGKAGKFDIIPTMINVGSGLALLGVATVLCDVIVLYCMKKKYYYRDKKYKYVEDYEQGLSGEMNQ

[2] = system: S6 ribosomal protein phosphorylation (mTOR signaling); assay: Immunoblot analysis of survival pathways / S6 phosphorylation in AOM/DSS tumor organoids; assay type: cell-based, mice; settings: ATP (100 μM) in presence of inhibitor; AOM/DSS tumor organoids
Procedure: Data are mean±SD, n=7. *p<0.05 by two-tailed Student's t-test. c, Immunoblot analysis of Lgr5EGFP-DTR(−) tumor organoids treated with ATP (100 μM), 2MeS ADP (100 μM) and adenosine (100 μM) for 30 min. […] Data are mean±SD, n=4 replicates. […] Data are mean±SD, n=3 replicates. One representative of three experiment performed is shown. n.s. p>0,05, *p<0.05***, p<0.001, ****p<0.0001 by 1-way ANOVA with Bonferroni's multiple comparison test. 1, Immunoblot analysis of doxycycline inducible P2x4 knockdown APTAK colon tumor organoids treated with 5-FU (20 μM). Organoids were cultured in medium−/+doxycycline prior to the experiment. […] Organoids were cultured in medium−/+doxycycline prior to the experiment. […] Data are mean±SD, n=3.
In vitro Lgr5+ cells ablation experiments, organoids were treated with 20 ng/ml DT (Millipore, #322326) in the culture medium. For human LGR5+ cells ablation, we treated LGR5-iCT organoids with 500 nM BB homodimerizer. Other treatments were performed as described in each figure legends.

[3] = system: AOM/DSSATKN tumor organoids; settings: P2x4 inhibitor in combination with 5-FU (20 μM) compared to each treatment alone; AOM/DSS tumor organoids
Source text: Percentage of reseeding capacity compared to vehicle treated organoids is indicated. Data are mean±SD, n=4 replicates. […] Percentage of reseeding capacity compared to vehicle treated organoids is indicated.

PC3 and C4-2B4 cells = settings: selective P2XR4 antagonists; cited from earlier work
SW480 cells = settings: irinotecan and AZD2014 combination; orthotopic implantation; cited from earlier work
[4] = system: ectopic patient-derived colon tumor; settings: irinotecan and AZD2014 combination; cited from earlier work
[5] = system: advanced colorectal cancer; settings: treatment of advanced colorectal cancer; cited from earlier work
[6] = system: refractory metastatic colorectal cancer / refractory solid tumors; settings: cited from earlier work
[7] = 24 patients with refractory metastatic colorectal cancer, everolimus combination cohorts

O=C1CN=C(c2cccc(Br)c2)c2oc3ccccc3c2N1 [5-BDBD, 5-(3-bromophenyl)-1,3-dihydro-2H-benzofuro[3,2-e]-1,4-diazepin-2-one]
tumor organoid survival [1]: sensitizes tumor organoids to 5-FU administration and leads to reduced tumor organoid survival | organoid survival (APTAK tumor organoids): decreased organoid survival | antagonist action on ATP-induced currents (rat P2X4 receptor): specific P2X4R antagonist | ATP induced phosphorylation of S6 [2]: reduced phosphorylation of S6 by ATP | organoid survival [3]: decreased organoid survival | growth, mobility and apoptosis of PCa cells (PC3 and C4-2B4 cells): impaired the growth and mobility of PCa cells but not apoptosis

CNC(=O)c1cccc(-c2ccc3c(N4CCOC[C@@H]4C)nc(N4CCOC[C@@H]4C)nc3n2)c1 [AZD2014]
liver and lung metastases (SW480 cells): totally inhibited liver and lung metastases | tumor growth [4]: drastically reduced ectopic patient-derived colon tumor growth

CO[C@H]1C[C@@H]2CC[C@@H](C)[C@@](O)(O2)C(=O)C(=O)N2CCCC[C@H]2C(=O)O[C@H]([C@H](C)C[C@@H]2CC[C@@H](OCCO)[C@H](OC)C2)CC(=O)[C@H](C)/C=C(\C)[C@@H](O)[C@@H](OC)C(=O)[C@H](C)C[C@H](C)/C=C/C=C/C=C/1C [everolimus]
clinical activity [5]: limited clinical activity | median time on treatment [6, 7]: 2.7 months | patients remaining on treatment with stable disease for at least 3 months [6, 7]: 45% | safety and tolerability ([6]; everolimus in addition to 5-FU/LV and mFOLFOX6): appears safe and tolerable

Source: patent US20240075036A1, “THERAPEUTIC COMBINATIONS INCLUDING INHIBITORS OF THE P2X4 RECEPTOR FOR TREATING AND PREVENTING PROLIFERATIVE DISORDERS” (CHEMOTHERAPEUTISCHES FORSCHUNGSINSTITUT GEORG-SPEYER-HAUS, priority 2021, published 2024)
